From US20240269139A1, “COMPOUNDS FOR TARGETED PROTEIN DEGRADATION OF KINASES” (DANA-FARBER CANCER INSTITUTE, INC., priority 2020, published 2024) come the findings set out here.

Read-outs that look alike come from different tables or passages of the source.

The target in experiment [1] is protein kinases (human kinome) (Homo sapiens, UniProt P35790). Format: cell-based. The conditions noted are these: CHKA P35790.
Experiment [2] concerns the target T1, CRBN-degrader-kinase ternary complexes (Homo sapiens, UniProt Q96SW2).
T1 construct: host or cells: HEK293T
Briefly: FLAG-CRBN affinity purification TMT LC-MS3 (AP-MS) of degrader-mediated ternary complexes. Format: cell-based, H. sapiens. The conditions noted are these: for enriched proteins in the CRBN AP-MS: relative to SB1-G-187 and WH-10417-099. The source says:
An important aspect of protein degraders is the multifaceted nature of the molecule that enables heightened target selectivity due to differences in complementarity of target-ligase interactions, which is not a consideration when assessing selectivity of inhibitors for target engagement (Famaby el al., Nat Chem Biol 15:672-680 (2019)). For compound-induced degradation to be successful, productive ternary complex formation (ligase-degrader-POI) is necessary for proximity-mediated ubiquitin transfer onto the POI. […] Cellular affinity purification was performed, followed by mass spectrometry (AP-MS) of FLAG-tagged CRBN transiently overexpressed in HEK293T cells. FLAG-CRBN expressing cells were co-treated with proteosome inhibitor and 1 μM of each degrader for 5 h, and the degree of kinase target enrichment was compared to kinase degradation hits in matched global proteomics analysis experiments (FIG. 3A, FIG. 3C). The proteins identified as complexed with CRBN were enriched for kinases as well as their known binding partners such as Cyclin B (CDK1) and RASSF1 (STK4), consistent with the binding profiles of the assayed degraders. All kinases identified by AP-MS except CSNK1A1 were also detected in the HEK293T whole proteome degrader profiling experiment, allowing us to interrogate trends across 52 unique kinases (FIG. 4A; FIG. 11B). Limitations of this experiment include the potential loss of transient or weakly bound complexes in the enrichment and subsequent wash steps, the inherent noise associated with AP-MS relative to global proteomics analysis (Dunham et al., Proteomics 12:1576-1590 (2012): Yugandhar et al., Comput Struct Biotechnol J 17:805-811 (2019)) and the short time point of the experiment, which precludes detection of degradation events with slow kinetics. Therefore, the relationship between the formation of abundant, stable ternary complexes and rapid degradation was assessed.
HEK293T cells were seeded into 15 cm plates and cells were transiently transfected with 8 μg of pNTM-FLAG-CRBN construct using lipofectamine 2000. […] Cells were harvested with non-enzymatic CellStripper™ Dissociation reagent (Corning®), followed by three washes with cold PBS and snap freezing. Cell lysis was performed by the addition of IP lysis buffer (50 mM Tris. pH 7.5, 0.5% NP-40, 1 mM EDTA, 10% glycerol and 200 mM NaCl) containing protease inhibitor cocktail (cOmplete™) and relevant co-treatment (above), followed by end-over-end rotation at 4° C. for 3 hours. Lysate was clarified by centrifugation and salt concentration diluted to 100 mM NaCl with the addition of 0 mM NaCl lysis buffer (containing protease inhibitors and 1 μM of relevant compounds to retain temary complexes throughout binding). Lysate was added to 20 μL of pre-washed anti-FLAG M2 magnetic bead slurry (MilliporeSigma) and incubated with end-over-end rotation at 4° C. overnight. Beads were washed six times with 100 mM NaCl lysis buffer containing 1 μM of relevant degraders to retain ternary complexes throughout wash steps.
Proteins were eluted in a two-step elution with the addition of 0.1 M Glycine hydrochloride (MilliporeSigma) and elution buffered to pH 8.5 using 200 mM Tris buffer, pH 8.5. […] Protein pellets were resuspended in 50 μL of EPPs pH 8 and first digested with 2 μg LysC for 12 h at room temperature (RT), followed by 1 μg of trypsin for 6 hours at 37° C.

Experiment [3] concerns the target protein kinases (human kinome) (Homo sapiens, UniProt O94804). The class given is cell-based. The conditions noted are these: STK10 (O94804).
In experiment [4] the target is T2, protein kinases (human kinome) (Homo sapiens, UniProt Q9NRH2).
T2 sequence (Q9NRH2 1-765): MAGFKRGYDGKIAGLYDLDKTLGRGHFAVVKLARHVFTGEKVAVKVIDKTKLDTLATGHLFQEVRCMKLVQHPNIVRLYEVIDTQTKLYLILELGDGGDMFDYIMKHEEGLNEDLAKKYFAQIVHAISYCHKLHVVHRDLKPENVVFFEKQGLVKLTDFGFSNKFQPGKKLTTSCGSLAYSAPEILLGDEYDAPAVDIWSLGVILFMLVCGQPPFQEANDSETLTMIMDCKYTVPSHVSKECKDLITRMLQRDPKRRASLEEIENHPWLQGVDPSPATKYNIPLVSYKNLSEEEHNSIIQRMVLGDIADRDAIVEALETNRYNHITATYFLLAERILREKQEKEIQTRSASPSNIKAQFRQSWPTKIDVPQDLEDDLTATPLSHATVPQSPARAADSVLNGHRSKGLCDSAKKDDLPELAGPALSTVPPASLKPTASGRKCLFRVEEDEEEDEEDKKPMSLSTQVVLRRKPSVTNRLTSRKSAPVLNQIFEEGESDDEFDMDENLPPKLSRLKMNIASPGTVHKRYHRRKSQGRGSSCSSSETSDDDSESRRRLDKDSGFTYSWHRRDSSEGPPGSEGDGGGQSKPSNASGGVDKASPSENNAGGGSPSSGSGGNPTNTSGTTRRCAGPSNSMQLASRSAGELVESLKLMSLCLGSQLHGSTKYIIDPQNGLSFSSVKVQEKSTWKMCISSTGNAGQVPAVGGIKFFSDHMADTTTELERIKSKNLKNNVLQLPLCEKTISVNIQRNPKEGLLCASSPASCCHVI
The class given is cell-based. As to conditions: for logFC: SNRK (Q9NRH2).

The mark [5] stands for this setting: HEK293T, 1 μM, 5 h, proteasome inhibitor.
[6] abbreviates: experiment wp103, direction down.

protein kinases (human kinome) (Homo sapiens, UniProt P35790), sequence (P35790 whole entry): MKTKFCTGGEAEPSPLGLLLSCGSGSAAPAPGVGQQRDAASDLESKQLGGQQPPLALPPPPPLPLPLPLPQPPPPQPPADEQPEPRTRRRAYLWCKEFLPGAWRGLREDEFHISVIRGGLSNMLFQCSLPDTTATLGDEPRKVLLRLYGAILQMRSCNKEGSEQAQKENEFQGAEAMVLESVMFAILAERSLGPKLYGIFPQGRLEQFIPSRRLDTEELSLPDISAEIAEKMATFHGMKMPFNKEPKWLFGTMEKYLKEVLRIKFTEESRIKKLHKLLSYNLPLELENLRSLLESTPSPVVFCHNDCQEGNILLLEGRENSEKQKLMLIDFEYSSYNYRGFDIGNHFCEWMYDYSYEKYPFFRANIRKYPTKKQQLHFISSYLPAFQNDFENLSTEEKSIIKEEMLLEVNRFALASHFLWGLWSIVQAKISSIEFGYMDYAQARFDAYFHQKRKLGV
T1 sequence (Q96SW2 whole entry): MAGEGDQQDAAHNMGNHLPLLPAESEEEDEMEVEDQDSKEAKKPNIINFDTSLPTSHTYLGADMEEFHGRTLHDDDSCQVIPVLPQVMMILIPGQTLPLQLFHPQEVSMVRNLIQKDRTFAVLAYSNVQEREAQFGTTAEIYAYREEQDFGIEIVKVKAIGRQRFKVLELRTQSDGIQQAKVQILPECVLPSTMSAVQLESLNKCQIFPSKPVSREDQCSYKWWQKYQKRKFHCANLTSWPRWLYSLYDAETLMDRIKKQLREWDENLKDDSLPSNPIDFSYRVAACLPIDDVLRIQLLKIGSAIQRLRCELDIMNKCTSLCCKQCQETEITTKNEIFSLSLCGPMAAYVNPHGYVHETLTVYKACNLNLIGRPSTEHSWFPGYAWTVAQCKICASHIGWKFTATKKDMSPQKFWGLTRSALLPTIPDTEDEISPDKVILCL
T1 sequence (Q16531 whole entry partner): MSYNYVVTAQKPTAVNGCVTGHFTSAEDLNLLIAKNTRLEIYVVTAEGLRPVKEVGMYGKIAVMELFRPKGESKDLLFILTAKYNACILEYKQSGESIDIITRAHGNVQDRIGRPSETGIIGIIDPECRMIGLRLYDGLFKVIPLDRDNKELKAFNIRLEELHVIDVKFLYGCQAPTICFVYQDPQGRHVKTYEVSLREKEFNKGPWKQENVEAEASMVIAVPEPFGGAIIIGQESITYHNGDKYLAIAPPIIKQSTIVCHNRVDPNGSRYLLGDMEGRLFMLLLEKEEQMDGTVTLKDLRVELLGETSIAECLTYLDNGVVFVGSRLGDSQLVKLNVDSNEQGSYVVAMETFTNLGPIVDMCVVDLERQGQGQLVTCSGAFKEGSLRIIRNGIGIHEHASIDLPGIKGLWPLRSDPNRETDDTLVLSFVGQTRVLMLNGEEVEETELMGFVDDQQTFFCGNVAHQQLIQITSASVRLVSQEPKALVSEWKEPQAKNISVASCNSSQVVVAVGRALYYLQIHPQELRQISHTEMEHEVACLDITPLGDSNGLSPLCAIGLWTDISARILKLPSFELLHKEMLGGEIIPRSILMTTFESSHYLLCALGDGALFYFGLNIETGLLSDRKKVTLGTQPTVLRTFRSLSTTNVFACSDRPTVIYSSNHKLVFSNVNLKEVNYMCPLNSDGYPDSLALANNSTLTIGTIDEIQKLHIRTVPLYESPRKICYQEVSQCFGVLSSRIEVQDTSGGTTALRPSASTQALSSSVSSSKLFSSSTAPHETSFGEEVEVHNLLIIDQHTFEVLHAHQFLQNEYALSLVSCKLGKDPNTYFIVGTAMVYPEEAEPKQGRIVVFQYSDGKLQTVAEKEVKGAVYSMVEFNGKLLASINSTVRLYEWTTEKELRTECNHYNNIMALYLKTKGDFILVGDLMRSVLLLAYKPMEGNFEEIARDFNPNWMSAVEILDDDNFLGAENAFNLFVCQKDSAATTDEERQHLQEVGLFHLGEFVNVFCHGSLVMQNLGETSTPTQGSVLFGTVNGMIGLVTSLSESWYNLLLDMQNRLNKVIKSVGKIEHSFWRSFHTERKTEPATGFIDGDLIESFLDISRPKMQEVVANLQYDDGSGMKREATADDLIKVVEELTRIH
protein kinases (human kinome) (Homo sapiens, UniProt O94804), sequence (O94804 whole entry): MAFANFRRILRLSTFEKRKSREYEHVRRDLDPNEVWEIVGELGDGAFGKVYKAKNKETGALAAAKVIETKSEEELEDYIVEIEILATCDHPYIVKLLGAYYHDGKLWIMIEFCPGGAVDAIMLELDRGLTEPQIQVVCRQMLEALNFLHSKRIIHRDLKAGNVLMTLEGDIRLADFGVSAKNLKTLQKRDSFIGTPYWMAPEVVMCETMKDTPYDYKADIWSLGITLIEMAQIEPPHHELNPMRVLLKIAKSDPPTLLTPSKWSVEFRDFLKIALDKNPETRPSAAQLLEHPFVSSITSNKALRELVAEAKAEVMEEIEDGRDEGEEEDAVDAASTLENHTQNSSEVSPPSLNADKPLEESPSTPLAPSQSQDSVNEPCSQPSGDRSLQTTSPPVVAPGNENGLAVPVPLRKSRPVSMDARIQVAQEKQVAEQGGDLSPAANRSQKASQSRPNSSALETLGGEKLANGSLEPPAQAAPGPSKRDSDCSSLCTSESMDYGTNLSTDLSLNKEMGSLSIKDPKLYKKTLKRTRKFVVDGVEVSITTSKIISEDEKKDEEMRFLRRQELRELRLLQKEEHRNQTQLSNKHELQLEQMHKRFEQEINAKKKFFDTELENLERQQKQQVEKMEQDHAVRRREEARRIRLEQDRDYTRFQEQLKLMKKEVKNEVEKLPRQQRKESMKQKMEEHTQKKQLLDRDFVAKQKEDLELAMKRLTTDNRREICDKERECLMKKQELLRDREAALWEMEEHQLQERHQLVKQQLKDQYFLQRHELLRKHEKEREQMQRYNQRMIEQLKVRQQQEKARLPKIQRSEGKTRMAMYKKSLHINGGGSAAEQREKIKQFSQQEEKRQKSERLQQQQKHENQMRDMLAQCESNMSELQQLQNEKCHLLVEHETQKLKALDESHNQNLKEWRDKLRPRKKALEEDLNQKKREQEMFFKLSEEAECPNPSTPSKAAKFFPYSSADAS

For `Cc1ccc(NC(=O)c2cccc(C(F)(F)F)c2)cc1N1Cc2cnc(Nc3ccc(N4CCN(Cc5cn(CCCCCOc6cccc7c6C(=O)N(C6CCC(=O)NC6=O)C7=O)nn5)CC4)nc3)nc2N(C)C1=O` (centres unmarked) [DB0646, N-(3-(7-((6-(4-((1-(5-((2-(2,6-Dioxopiperidin-3-yl)-1,3-dioxoisoindolin-4-yl)oxy)pentyl)-1H-1,2,3-triazol-4-yl)methyl)piperazin-1-v)pyridin-3-yl)amino)-1-methyl-2-oxo-1,4-dihydropyrimido[4,5-d]pyrimidin-3(2H)-yl)-4-methylphenyl)-3-(trifluoromethyl)benzamide], the logFC was −0.3979 in experiment [1] (experiment wp152) and −0.4303 in experiment [1] (experiment wp160, 8 hr). In addition, the “YES1: ternary complex formation with CRBN versus degradation” value (“YES1 … with CRBN versus degradation” for short) in experiment [2] (setting [5]) was “complex formation and degradation are sometimes detected together”. Further, in experiment [2], the “enriched proteins in the CRBN AP-MS” value is given as “fewer enriched proteins”.

Regarding `Nc1ncc(-c2ccc(S(=O)(=O)N(CCCNC(=O)CCOCCOCCOCCOCCOCCNc3cccc4c3C(=O)N(C3CCC(=O)NC3=O)C4=O)C3CC3)cc2)cc1-c1ccc2c(c1)CCNC2=O` (centres unmarked) [WH.10417.099], the logFC is listed as −0.4923 in experiment [3] (experiment wp056); −0.4923 in experiment [3] (experiment wp056, direction down); −0.4751 in experiment [3] (experiment wp103); −0.4751 in experiment [3] (setting [6]); −0.5661 in experiment [3] (experiment wp107); −0.5661 in experiment [3] (experiment wp107, direction down).

As to `Cc1ccc(C(=O)Nc2ccc(CN3CCN(CCCOCCOCCOCCNC(=O)COc4cccc5c4C(=O)N(C4CCC(=O)NC4=O)C5=O)CC3)c(C(F)(F)F)c2)cc1C#Cc1cnc2cccnn12` (centres unmarked) [SB1.G.187], the logFC in experiment [3] (experiment wp103) and in experiment [3] (setting [6]) was −0.3374 throughout.

Turning to `Cc1cnc(Nc2ccc(N3CCN(CCCCCCC(=O)N[C@H](C(=O)N4C[C@H](O)C[C@H]4C(=O)N[C@@H](C)c4ccc(-c5scnc5C)cc4)C(C)(C)C)CC3)cc2)nc1Nc1cccc(S(=O)(=O)NC(C)(C)C)c1` [JWG.123], in experiment [4] (Experiment wp195), the “logFC of SNRK (Q9NRH2)” value is on record as −1.197. Also, the logFC in experiment [4] (experiment wp195) was −1.197.

For the molecule `Cc1ccc(C(=O)Nc2ccc(CN3CCN(CCCOCCOCCOCCNC(=O)COc4cccc5c4C(=O)N(C4CCC(=O)NC4=O)C5=O)CC3)c(C(F)(F)F)c2)cc1C#Cc1cnc2cccnn12` (centres unmarked) [SB1-G-187, N-(4-((4-(1-((2-(2,6-dioxopiperidin-3-yl)-1,3-dioxoisoindolin-4-yl)oxy)-2-oxo-6,9,12-trioxa-3-azapentadecan-15-yl)piperazin-1-yl)methyl)-3 (trifluoromethyl)phenyl)-3-(imidazo[1,2-b]pyridazin-3-ylethynyl)-4-methylbenzamide], in experiment [2] (setting [5]), the “IRAK1: ternary complex formation with CRBN versus degradation” value is “complex formation and degradation are sometimes detected together”; the “LYN: ternary complex formation with CRBN versus degradation” value is “complex formation and degradation are sometimes detected together”; the “YES1 … with CRBN versus degradation” value was “complex formation and degradation are sometimes detected together”.

On to `CC(C)S(=O)(=O)c1ccccc1Nc1nc(Nc2ccc(N3CCN(CCOCCOCCNC(=O)CNc4cccc5c4C(=O)N(C4CCC(=O)NC4=O)C5=O)CC3)cc2)ncc1Cl` (centres unmarked) [TL12.186], for which the logFC in experiment [3] (experiment wp016) is −0.3819; in experiment [3] (experiment wp016, direction down) it was −0.3819; in experiment [1] (experiment wp131) it was −0.3954.

As to `Cc1ncsc1-c1ccc([C@H](C)NC(=O)[C@@H]2C[C@@H](O)CN2C(=O)[C@@H](NC(=O)CCCCCN2CCc3cc(Nc4ncc(C5CC5)c(NCCCNC(=O)C5CCC5)n4)ccc3C2)C(C)(C)C)cc1` [BSJ.05.026], the “logFC of SNRK (Q9NRH2)” value in experiment [4] (Experiment wp195) is −1.856. In addition, the logFC in experiment [4] (experiment wp195) is on record as −1.856.

As to `Cc1ncsc1-c1ccc([C@H](C)NC(=O)[C@@H]2C[C@@H](O)CN2C(=O)[C@@H](NC(=O)CCCCCN2CCN(c3ccc(Nc4ncc5scc(-c6cccc(NS(C)(=O)=O)c6)c5n4)cc3)CC2)C(C)(C)C)cc1` [RSS0680, (2S,4R)-1-((S)-3,3-Dimethyl-2-(6-(4-(4-((7-(3-(methylsulfonamido)phenyl)thieno[3,2-d]pyrimidin-2-yl)amino)phenyl)piperazin-1-yl)hexanamido)butanoyl)-4-hydroxy-N—((S)-1-(4-(4-methylthiazol-5yl)phenyl)ethyl)pyrrolidine-2-carboxamide], the “logFC of SNRK (Q9NRH2)” value in experiment [4] (Experiment wp117) is reported as −0.6321; in experiment [4] (experiment wp080) it was −0.5567. Further, the logFC in experiment [4] (experiment wp080) was −0.5567; in experiment [4] (experiment wp117), −0.6321.

As for `O=C1CCC(N2C(=O)c3cccc(NCCCCCCCCN4CCC(NC(=O)c5[nH]ncc5NC(=O)c5c(Cl)cccc5Cl)CC4)c3C2=O)C(=O)N1` (centres unmarked) [MFH.5.126.1], in experiment [1] (experiment wp076), the logFC is recorded as −0.4653.

Consider `Cc1ncsc1-c1ccc([C@H](C)NC(=O)[C@@H]2C[C@@H](O)CN2C(=O)[C@@H](NC(=O)CCOCCOCCN2CCN(c3ccc(Nc4ncc(Cl)c(Nc5ccccc5S(=O)(=O)C(C)C)n4)cc3)CC2)C(C)(C)C)cc1` [FMF.06.098.1], for which the logFC is listed as −0.3716 in experiment [1] (experiment wp108) and −0.4457 in experiment [1] (experiment wp131).

As to `CC(C)S(=O)(=O)c1ccccc1Nc1nc(Nc2ccc(N3CCN(CCOCCNC(=O)CNc4cccc5c4C(=O)N(C4CCC(=O)NC4=O)C5=O)CC3)cc2)ncc1Cl` (centres unmarked) [SK-3-91], the “YES1 … with CRBN versus degradation” value in experiment [2] (setting [5]) is “complex formation does not predict degradation”. Also, in experiment [2], the “enriched proteins in the CRBN AP-MS” value is “fewer enriched proteins”.

With `O=C(COc1cccc2c1C(=O)N(C1CCC(=O)NC1=O)C2=O)NCCCCCCCN1CCc2cc(Nc3ncc(C4CC4)c(NCCCNC(=O)C4CCC4)n3)ccc2C1` (centres unmarked) [BSJ.04.178], in experiment [4] (experiment wp134), the logFC is given as −1.523 and the “logFC of SNRK (Q9NRH2)” value was −1.523.

As to `CC(C)S(=O)(=O)c1ccccc1Nc1nc(Nc2ccc(N3CCN(CCOCCOCCC(=O)NCCNc4cccc5c4CN(C4CCC(=O)NC4=O)C5=O)CC3)cc2)ncc1Cl` (centres unmarked) [TL13.97], the logFC is on record as −0.3477 in experiment [3] (experiment wp137) and −0.3477 in experiment [3] (experiment wp137, direction down).
